Source: patent US7297660B2, “Alkylene carbonate adjuvants” (Huntsman Petrochemical Corporation, priority 2001, dated 2007)
Where two headings read alike, the source gives them in different places.

Assays:
lambsquarters = experiment: Bioefficacy testing with glyphosate, lambsquarters control; assay type: in vivo
Description: (§1) The adjuvancy of alkylene carbonates with glyphosate was then tested. Bioefficacy testing was conducted on lambsquarters and velvetleaf weeds. The mono-isopropylamine salt of glyphosate was applied to velvetleaf and lambsquarters weeds at 0.25 lb ae/acre, and the adjuvant mixtures were present at 0.1 v/v%. The spray volume was 20 gal/acre, and application was made at 25 psig.
(§2) Evaluations, with the same adjuvant mixtures listed above, were also made with ammonium sulfate (AMS) at 17 lb/100 gallons water carrier. For control purposes, a group of plants was not treated with any glyphosate, and another group of plants was treated with only glyphosate.
(§3) The two alkylene carbonate blends of PC and BC were compared to diethylene glycol (DEG) as a standard solvent in combination with two different nonionic surfactant systems. One surfactant system was a SURFONIC® N-95 alkyl phenol ethoxylate, and the second surfactant system was a SURFONIC® DDA-8 branched alcohol ethoxylate. (SURFONIC® brand ethoxylates are commercially available from Huntsman Petrochemical Corporation, Houston, Tex.).
(§4) The results are expressed in terms of percent control, where 0% represents no plant necrosis, and 100% represents complete plant necrosis.

velvetleaf = experiment: Bioefficacy testing with glyphosate, velvetleaf control; assay type: in vivo
Description: as §1, §2, §3, §4

Surface tension = assay type: physicochemical
Dipole moment = assay type: physicochemical; conditions: 40° C.
[1] = Hansen Solubility Parameters of JEFFSOL brand alkylene carbonates
mammals = conditions: in vivo; cited from earlier work
[2] = cited from earlier work
[3] = criteria promulgated by the European Union; cited from earlier work
guinea pigs = conditions: 21-day test; cited from earlier work
rabbits = conditions: undiluted; cited from earlier work
skin = conditions: neat; cited from earlier work
[4] = tested on: Rat Hepatocyte Primary Culture; conditions: Rat Hepatocyte Primary Culture/DNA Repair Test; cited from earlier work
dogs = conditions: 21-day test; cited from earlier work
[5] = tested on: activated sludge bacteria taken from a wastewater treatment plant; conditions: 7 day test at 300 ppm; cited from earlier work
[6] = free acid form; cited from earlier work

Structure (SMILES) | Surface Tension (Surface tension; 25° C. (* = supercooled)) | Surface Tension (Surface tension; 40° C.) | Dipole Moment (Dipole moment) | Hansen Sol Par, dispersive [1] | Hansen Sol Par, hydrogen bonding [1] | Hansen Sol Par, polar [1] | Hansen Sol Par, total [1] | toxicity towards mammals (mammals) | also measured
N.N.O=S(=O)(O)O [AMS, ammonium sulfate] | – | – | – | – | – | – | – | – | lambsquarters control, overall efficacy (lambsquarters; FIG. 4, glyphosate with AMS 17 lb/100 gallons): does not produce the dramatic improved efficacy; velvetleaf necrosis, overall (velvetleaf; FIG. 2, glyphosate with AMS 17 lb/100 gallons): dramatically increases velvetleaf necrosis
CCC1COC(=O)O1 (stereo not drawn) [BC, 1,2-butylene carbonate] | 38.1 dynes/cm | 37.0 dynes/cm | 5.28 Debyes | 8.3 cal^1/2 cm^−3/2 | 4.8 cal^1/2 cm^−3/2 | 3.0 cal^1/2 cm^−3/2 | 10.0 cal^1/2 cm ^−3/2 | relatively low toxicity | –
CNC(=O)CSP(=S)(OC)OC [Cygon, dimethoate] | – | – | – | – | – | – | – | – | time to lose 50 percent of pest control power ([2]; mixed in water of pH 9): 48 min; time to lose 50 percent of pest control power ([2]; pH of 6): 720 min
O=C1OCCO1 [EC, ethylene carbonate] | 44.0* dynes/cm | 42.2 dynes/cm | 4.80 Debyes | – | – | – | – | – | –
CC1COC(=O)O1 (stereo not drawn) [PC, propylene carbonate] | 40.9 dynes/cm | 39.6 dynes/cm | 4.98 Debyes | 9.8 cal^1/2 cm^−3/2 | 2.0 cal^1/2 cm^−3/2 | 8.8 cal^1/2 cm^−3/2 | 13.3 cal^1/2 cm ^−3/2 | relatively low toxicity | biodegradability [3]: very readily biodegradable; toxicity by inhalation (guinea pigs): non-toxic; LD50 (rabbits): > 20 mL/kg; skin irritation (skin): moderate skin irritation; genotoxicity [4]: negative; toxicity by inhalation (dogs): non-toxic; adverse effects on activated sludge bacteria [5]: did not show adverse effects
O=C(O)CNCP(=O)(O)O [glyphosate, N-phosphonomethylglycine, reference compound] | – | – | – | – | – | – | – | – | water solubility [6]: low water solubility; lambsquarters control (necrosis/kill), overall (lambsquarters; FIG. 3, glyphosate 0.25 lb ae/acre, adjuvant 0.1 v/v%, no AMS): very little observed necrosis; velvetleaf control (necrosis), overall (velvetleaf; FIG. 1, glyphosate IPA salt 0.25 lb ae/acre, adjuvant 0.1 v/v%, no AMS): very little observed necrosis
